Reference: patent publication US6599860B1, “Herbicidal halogenalkyl-substituted 3-(4,5-dihydroisoxazol-3-yl)-benzoyl-cyclohexenones” (BASF Aktiengesellschaft, priority 1999, dated 2003)

melting point: 98 to 103 °C
SMILES: Cc1c(C(=O)C2C(=O)C3CCC(C3)C2=O)ccc(S(C)(=O)=O)c1C1=NOC(CCl)C1 (stereo not shown) [Compound 2.2, 3-[2-Methyl-3-(5-chloromethyl-4,5-dihydroisoxazol-3-yl)-4-methyl-sulfonylbenzoyl]bicyclo[3.2.1]octane-2,4-dione]
